The target in experiment [1] is T1, AChE (acetylcholinesterase) (Electrophorus electricus, UniProt O42275). Kind of experiment: colorimetric hydroxamic acid/FeCl3 assay of remaining ACh (Bonting and Featherstone), non-linear regression. Format: biochemical.
Experiment [2] concerns the target T1, AChE (acetylcholinesterase). Kind of experiment: colorimetric hydroxamic acid/FeCl3 assay of remaining ACh (Bonting and Featherstone), enzyme kinetics with Lineweaver-Burk plot. Format: biochemical.

The values that follow come from publication PMC6020091 (Chemistry Central Journal, 2018).

T1 sequence (O42275 24-633 limits assumed): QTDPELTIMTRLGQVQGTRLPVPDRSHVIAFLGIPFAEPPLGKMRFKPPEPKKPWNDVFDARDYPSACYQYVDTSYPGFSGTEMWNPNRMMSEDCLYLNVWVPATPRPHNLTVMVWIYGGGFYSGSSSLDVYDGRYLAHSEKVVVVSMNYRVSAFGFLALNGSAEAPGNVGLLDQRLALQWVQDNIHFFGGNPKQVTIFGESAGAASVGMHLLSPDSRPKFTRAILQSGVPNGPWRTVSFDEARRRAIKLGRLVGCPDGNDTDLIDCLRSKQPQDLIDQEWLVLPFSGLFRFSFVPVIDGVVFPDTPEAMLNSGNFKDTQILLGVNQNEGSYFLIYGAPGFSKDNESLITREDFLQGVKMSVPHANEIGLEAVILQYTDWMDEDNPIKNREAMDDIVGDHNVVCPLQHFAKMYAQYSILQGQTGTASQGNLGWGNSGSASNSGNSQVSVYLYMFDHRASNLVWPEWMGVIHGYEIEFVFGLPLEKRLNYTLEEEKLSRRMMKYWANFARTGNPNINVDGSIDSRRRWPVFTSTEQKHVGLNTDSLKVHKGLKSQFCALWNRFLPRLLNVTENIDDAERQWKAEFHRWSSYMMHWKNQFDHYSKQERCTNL

Regarding `CN(C)C(=O)Oc1cccc([N+](C)(C)C)c1` [neostigmine], in experiment [1], the Ki (usually the dissociation constant of the complex between target and ligand, obtained from inhibition or displacement) was 93 to 157 µM.

In experiment [2], `COc1ccc(CCN2C(=O)c3ccccc3C2=O)cc1OC` [compound 1] yielded a Ki of 330 to 930 µM.
